Experimental data published in ChEMBL document CHEMBL1122370 (J Med Chem, 1983).
“And” between values parts separate entries of the source, which are not always exact repeats. Equal entries are not always repeated.

Columns and labels:
Mus musculus [1] = test: Average weight of the mouse after treating with 180 mg/kg dose for 1 day; assay type: functional
L1210 [2] = test: In vivo anti tumor activity against L1210 leukemia in 5 mice measured as Increased life span at 90 mg/kg; assay type: functional; conditions: Mus musculus
L1210 [3] = test: In vivo anti tumor activity against L1210 leukemia in 5 mice measured as Increased life span at 180 mg/kg; assay type: functional; conditions: Mus musculus
Mus musculus [4] = test: Average weight of the mouse after treating with 45 mg/kg dose for 1 day; assay type: functional
Mus musculus [5] = test: Average weight of the mouse after treating with 90 mg/kg dose for 1 day; assay type: functional
L1210 [6] = test: In vivo anti tumor activity against L1210 leukemia in 5 mice measured as Increased life span at 45 mg/kg; assay type: functional; conditions: Mus musculus
Mus musculus [7] = test: Average weight change in mouse after treating with 90 mg/kg dose for 7 days.; assay type: functional
L1210 [8] = test: In vivo antitumor activity against L1210 leukemia in 5 mice measured as median survival range at 180 mg/kg; Value ranges from (14-23); assay type: functional, Mus musculus
L1210 [9] = test: In vivo antitumor activity against L1210 leukemia in 5 mice measured as median survival range at 90 mg/kg; Value ranges from (13-19); assay type: functional, Mus musculus
L1210 [10] = test: In vivo antitumor activity against L1210 leukemia in 5 mice measured as median survival range at 45 mg/kg; Value ranges from (11-13); assay type: functional, Mus musculus
Mus musculus [11] = test: Average weight change in mouse after treating with 180 mg/kg dose for 7 days.; assay type: functional
Mus musculus [12] = test: Average weight of the mouse after treating with 400 mg/kg dose for 7 day.; assay type: functional
Mus musculus [13] = test: Average weight of the mouse after treating with 400 mg/kg dose for 1 day.; assay type: functional
L1210 [14] = test: In vivo antitumor activity against L1210 leukemia in 5 mice measured as median survival range at 400 mg/kg; Value ranges from (14-20).; assay type: functional, Mus musculus
L1210 [15] = test: In vivo antitumor activity against L1210 leukemia in 5 mice measured as Increased life span at 400 mg/kg.; assay type: functional, Mus musculus
L1210 [16] = test: In vivo antitumor activity against L1210 leukemia in 15 mice measured as T/C values; T/C = 15/11; assay type: functional, Mus musculus
L1210 [17] = test: In vivo antitumor activity against L1210 leukemia in 10 mice measured as median survival range at 160 mg/kg; Value ranges from(10-16).; assay type: functional, Mus musculus
L1210 [18] = test: In vivo antitumor activity against L1210 leukemia in 5 mice measured as Increased life span at 280 mg/kg.; assay type: functional; conditions: Mus musculus
Mus musculus [19] = test: In vivo antitumor activity against L1210 leukemia in 5 mice measured as Increased life span at 200 mg/kg.; assay type: functional
L1210 [20] = test: In vivo antitumor activity against L1210 leukemia in 13 mice measured as T/C values(days); T/C = 13/9; assay type: functional, Mus musculus
L1210 [21] = test: In vivo antitumor activity against L1210 leukemia in 15 mice measured as T/C values(days); T/C = 15/9; assay type: functional, Mus musculus
L1210 [22] = test: In vivo antitumor activity against L1210 leukemia in 5 mice measured as median survival range at 280 mg/kg; Value ranges from(14-20); assay type: functional, Mus musculus
L1210 [23] = test: In vivo antitumor activity against L1210 leukemia in 10 mice measured as Increased life span at 120 mg/kg.; assay type: functional; conditions: Mus musculus
Mus musculus [24] = test: Average weight of the mouse after treating with 200 mg/kg dose for 1 day.; assay type: functional
Mus musculus [25] = test: Average weight of the mouse after treating with 280 mg/kg dose for 7 days.; assay type: functional
Mus musculus [26] = test: Average weight of the mouse after treating with 160 mg/kg dose for 7 days.; assay type: functional
L1210 [27] = test: In vivo antitumor activity against L1210 leukemia in 5 mice measured as median survival range at 240 mg/kg; Value ranges from(13-18); assay type: functional, Mus musculus
L1210 [28] = test: In vivo antitumor activity against L1210 leukemia in 10 mice measured as Increased life span at 160 mg/kg.; assay type: functional; conditions: Mus musculus
L1210 [29] = test: In vivo antitumor activity against L1210 leukemia in 10 mice measured as median survival range at 120 mg/kg; Value ranges from(9-15); assay type: functional, Mus musculus
Mus musculus [30] = test: Average weight of the mouse after treating with 240 mg/kg dose for 1 day.; assay type: functional
Mus musculus [31] = test: In vivo antitumor activity against L1210 leukemia in 5 mice measured as median survival range at 200 mg/kg; Value ranges from(13-18); assay type: functional
Mus musculus [32] = test: Average weight of the mouse after treating with 200 mg/kg dose for 7 days.; assay type: functional
Mus musculus [33] = test: In vivo antitumor activity against L1210 leukemia in 16 mice measured as T/C values(days); T/C = 16/9; assay type: functional
Mus musculus [34] = test: Average weight of the mouse after treating with 280 mg/kg dose for 1 day.; assay type: functional
Mus musculus [35] = test: Average weight of the mouse after treating with 120 mg/kg dose for 7 days.; assay type: functional
L1210 [36] = test: In vivo antitumor activity against L1210 leukemia in 5 mice measured as Increased life span at 240 mg/kg.; assay type: functional; conditions: Mus musculus
Mus musculus [37] = test: Average weight of the mouse after treating with 160 mg/kg dose for 1 day.; assay type: functional
Mus musculus [38] = test: Average weight of the mouse after treating with 120 mg/kg dose for 1 day.; assay type: functional
Mus musculus [39] = test: Average weight of the mouse after treating with 240 mg/kg dose for 7 days.; assay type: functional
L1210 [40] = test: In vivo antitumor activity against L1210 leukemia in 17 mice measured as T/C values(days); T/C = 17/9; assay type: functional, Mus musculus
L1210 [41] = test: In vivo antitumor activity against L1210 leukemia in 5 mice measured as median survival range at 20 mg/kg; Value ranges from(15-17).; assay type: functional, Mus musculus
Mus musculus [42] = test: Average weight of the mouse after treating with 40 mg/kg dose for 7 days.; assay type: functional; set-up: unit not given beside the values
Mus musculus [43] = test: Average weight of the mouse after treating with 40 mg/kg dose for 1 day.; assay type: functional
Mus musculus [44] = test: Average weight of the mouse after treating with 20 mg/kg dose for 1 day.; assay type: functional; set-up: unit not given here
L1210 [45] = test: In vivo antitumor activity against L1210 leukemia in 17 mice measured as T/C values; T/C = 17/9; assay type: functional, Mus musculus
Mus musculus [46] = test: Average weight of the mouse after treating with 10 mg/kg dose for 1 day.; assay type: functional; set-up: unit not given here
L1210 [47] = test: In vivo antitumor activity against L1210 leukemia in 5 mice measured as T/C values; T/C = 22/9; assay type: functional, Mus musculus
L1210 [48] = test: In vivo antitumor activity against L1210 leukemia in 5 mice measured as Increased life span at 20 mg/kg.; assay type: functional; conditions: Mus musculus
Mus musculus [49] = test: Average weight of the mouse after treating with 10 mg/kg dose for 7 days.; assay type: functional
L1210 [50] = test: In vivo anti tumor activity against L1210 leukemia in 5 mice measured as Increased life span at 40 mg/kg.; assay type: functional; conditions: Mus musculus
L1210 [51] = test: In vivo antitumor activity against L1210 leukemia in 5 mice measured as median survival range at 40 mg/kg; Value ranges from(21-31).; assay type: functional, Mus musculus
L1210 [52] = test: In vivo antitumor activity against L1210 leukemia in 5 mice measured as median survival range at 10 mg/kg; Value ranges from(14-22); assay type: functional, Mus musculus
Mus musculus [53] = test: Average weight of the mouse after treating with 20 mg/kg dose for 7 days.; assay type: functional; set-up: unit not given beside the values
L1210 [54] = test: In vivo antitumor activity against L1210 leukemia in 16 mice measured as T/C values; T/C = 16/9; assay type: functional, Mus musculus
L1210 [55] = test: In vivo antitumor activity against L1210 leukemia in 5 mice measured as Increased life span at 10 mg/kg.; assay type: functional; conditions: Mus musculus

CCCCCCCCOC(=O)CCC(NC(=O)c1cc(Cl)c(N(C)Cc2cnc3nc(N)nc(N)c3n2)c(Cl)c1)C(=O)OCCCCCCCC (stereo not given)
Average weight (Mus musculus [1]): 28.2 | ILS at 90 mg/kg (L1210 [2]): 66% | ILS at 180 mg/kg (L1210 [3]): 122% | Average weight (Mus musculus [4]): 26.2 | Average weight (Mus musculus [5]): 28.2 | ILS at 45 mg/kg (L1210 [6]): 44% | Weight change (Mus musculus [7]): 1.4 and 3.6 | Range (L1210 [8]): 23 | Range (L1210 [9]): 19 | Range (L1210 [10]): 13 | Weight change (Mus musculus [11]): 5.8

CN(Cc1cnc2nc(N)nc(N)c2n1)c1ccc(C(=O)NC(CCC(=O)OC(C)(C)C)C(=O)OC(C)(C)C)cc1 (stereo not given)
Weight change (Mus musculus [12]): 2.6 | Average weight (Mus musculus [13]): 27.6 | Range (L1210 [14]): 20 | ILS (L1210 [15]): 36 | T/C (L1210 [16]): 11

CN(Cc1cnc2nc(N)nc(N)c2n1)c1c(Cl)cc(C(=O)NC(CCC(=O)O)C(=O)O)cc1Cl (stereo not given)
Range (L1210 [17]): 16 | ILS at 280 mg/kg (L1210 [18]): 89% | ILS at 200 mg/kg (Mus musculus [19]): 78% | T/C (L1210 [20]): 9 | T/C (L1210 [21]): 9 | Range (L1210 [22]): 20 | ILS at 120 mg/kg (L1210 [23]): 22% | Average weight (Mus musculus [24]): 24.2 | Weight change (Mus musculus [25]): 1.4 | Weight change (Mus musculus [26]): 2.9 | Range (L1210 [27]): 18 | ILS at 160 mg/kg (L1210 [28]): 44% | Range (L1210 [29]): 15 | Average weight (Mus musculus [30]): 22.4 | Range (Mus musculus [31]): 18 | Weight change (Mus musculus [32]): 1.8 | T/C (Mus musculus [33]): 9 | Average weight (Mus musculus [34]): 21.4 | Weight change (Mus musculus [35]): 2.4 | ILS at 240 mg/kg (L1210 [36]): 67% | Average weight (Mus musculus [37]): 22.5 | Average weight (Mus musculus [38]): 22.4 | Weight change (Mus musculus [39]): 2.1 | T/C (L1210 [40]): 9

CN(Cc1cnc2nc(N)nc(N)c2n1)c1ccc(C(=O)NC(CCC(=O)OCc2cccnc2)C(=O)OCc2cccnc2)cc1 (stereo not given)
Range (L1210 [41]): 17 | Weight change (Mus musculus [42]): 2 | Average weight (Mus musculus [43]): 26 | Average weight (Mus musculus [44]): 22 | T/C (L1210 [45]): 9 | Average weight (Mus musculus [46]): 21.3 | T/C (L1210 [47]): 9 | ILS at 20 mg/kg (L1210 [48]): 77% | Weight change (Mus musculus [49]): 1.1 | ILS at 40 mg/kg (L1210 [50]): 144% | Range (L1210 [51]): 31 | Range (L1210 [52]): 22 | Weight change (Mus musculus [53]): 1 | T/C (L1210 [54]): 9 | ILS at 10 mg/kg (L1210 [55]): 88%
